This passage reports IC50 results from patent publication US20230357179A1, “RAF KINASE INHIBITORS AND METHODS OF USE THEREOF” (Deciphera Pharmaceuticals, LLC, priority 2021, published 2023).

pIC50: −log10 of the molar value. Where only a bound is given, the exact number is not on record here.

The first experiment deals with H2405 cells. The experiment can be described thus: H2405 cell proliferation assay (1), resazurin, 96-well. It is filed as cell-based. To be noted: Homo sapiens, NCI-H2405, inhibition of cell proliferation. The essentials:
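This is a resazurin viability readout (excitation 540 nm, emission 600 nm) taken 5-6 h after adding 440 μM resazurin solution, giving IC50 values.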
A general note: The colour change of resazurin is a common sign of viable cells or microbes.
A word on the pIC50: it is −log10 of the IC50, conventionally taken in molar units. Turning to `Cc1cc(F)c(NC(=O)NCCC2(C(F)(F)F)CC2)cc1-c1cc(OCCO)nc(C2CCOCC2)c1` [Example 24], the pIC50 is 6.30 to 7.00.

For the compound `Cc1ccc(NC(=O)Nc2cn(C)nc2C(F)(F)F)cc1-c1cc(OCCO)nc(N2CCOCC2)c1` [Example 42], the negative logarithm of the IC50 (pIC50) was 5.00 to 6.00.

Consider `Cc1ccc(NC(=O)Nc2cnc(C(F)(F)F)s2)cc1-c1cc(OCCO)nc(N2CCOCC2)c1` [Example 43], for which the pIC50 was 6.30 to 7.00.

`CC(=O)Nc1cc(-c2cc(-c3cc(NC(=O)N[C@H]4C[C@](C)(F)C4)ccc3C)cc(OCCO)n2)ccn1` [Example 49]: the pIC50 is 6.30 to 7.00.

For `CNC(=O)c1cc(-c2cc(-c3cc(NC(=O)Nc4ccnc(C(C)(C)C#N)c4)ccc3C)ccn2)ccn1` [Example 69], the pIC50 was 5.00 to 6.00.

On to `COC(C)(C)CCNC(=O)Nc1cc(-c2cnnc(-c3ccnc(NC(=O)C4CC4)c3)c2)c(C)cc1F` [Example 173], for which the pIC50 is 6.30 to 7.00.

Turning to `COC(=O)Nc1cc(-c2nc(OCCO)cc(-c3cc(NC(=O)NC4CC(C)(C)C4)cnc3C)n2)ccn1` [Example 174], the pIC50 was 6.00 to 6.30.

With `CC(=O)Nc1cc(-c2cc(-c3cc(NC(=O)NCCC4(C)CC4)c(F)cc3C)cc(NCCO)n2)ccn1` [Example 175], the negative logarithm of the IC50 (pIC50) is no less than 7.00.

`COC[C@H]1CCN(C(=O)Nc2cnc(C)c(-c3ccnc(-c4ccnc(NC(=O)OC)c4)c3)c2)C1` [Example 176]: the pIC50 was 5.00 to 6.00.

Turning to `CNC(=O)c1cc(-c2cnnc(-c3cc(NC(=O)N4CC[C@H](OC)C4)ccc3C)c2)ccn1` [Example 177], the pIC50 was 5.00 to 6.00.

For the compound `CNC(=O)c1cc(-c2cnnc(-c3cc(NC(=O)N4CCC5(CC5)C4)ccc3C)c2)ccn1` [Example 178], the pIC50 was 5.00 to 6.00.

`COC[C@@H]1CCN(C(=O)Nc2cnc(C)c(-c3ccnc(-c4ccnc(NC(=O)OC)c4)c3)c2)C1` [Example 179]: the negative-log IC50 (pIC50) is 5.00 to 6.00.

As to `CNC(=O)c1cc(-c2cnnc(-c3cc(NC(=O)N4CCC(C(C)(C)C)C4)ccc3C)c2)ccn1` (stereo not drawn) [Example 180], the pIC50 was 5.00 to 6.00.

For the compound `CNC(=O)c1cc(-c2cnnc(-c3cc(NC(=O)N4CC[C@@H](OC)C4)ccc3C)c2)ccn1` [Example 181], the pIC50 is 5.00 to 6.00.

With `CNC(=O)c1cc(-c2cnnc(-c3cc(NC(=O)N4CC[C@@H](OC(F)(F)F)C4)ccc3C)c2)ccn1` [Example 182], the pIC50 is 5.00 to 6.00.

For `CNC(=O)c1cc(-c2cnnc(-c3cc(NC(=O)N4CCC(C(C)(C)C)C4)cnc3C)c2)ccn1` (stereo not drawn) [Example 184], the pIC50 is 5.00 to 6.00.

`COC(=O)Nc1cc(-c2cnnc(-c3cc(NC(=O)N4CCC(C(C)(C)C)C4)ccc3C)c2)ccn1` (stereo not drawn) [Example 185]: the pIC50 is 6.30 to 7.00.

For the compound `COC(=O)Nc1cc(-c2cc(-c3cc(NC(=O)NCCC4(C)CC4)ccc3F)cc(OCCO)n2)ccn1` [Example 187], the pIC50 was 5.00 to 6.00.

Take `COC(=O)Nc1cc(-c2cc(-c3cc(NC(=O)NCCC4(C)CC4)c(F)cc3F)cc(OCCO)n2)ccn1` [Example 188]: the negative logarithm of the IC50 (pIC50) was 6.00 to 6.30.

In another experiment the target is T1, B-Raf kinase (Homo sapiens, UniProt P15056).
T1 construct: GST (N); purchased Sigma
T1 sequence (P15056 416-766): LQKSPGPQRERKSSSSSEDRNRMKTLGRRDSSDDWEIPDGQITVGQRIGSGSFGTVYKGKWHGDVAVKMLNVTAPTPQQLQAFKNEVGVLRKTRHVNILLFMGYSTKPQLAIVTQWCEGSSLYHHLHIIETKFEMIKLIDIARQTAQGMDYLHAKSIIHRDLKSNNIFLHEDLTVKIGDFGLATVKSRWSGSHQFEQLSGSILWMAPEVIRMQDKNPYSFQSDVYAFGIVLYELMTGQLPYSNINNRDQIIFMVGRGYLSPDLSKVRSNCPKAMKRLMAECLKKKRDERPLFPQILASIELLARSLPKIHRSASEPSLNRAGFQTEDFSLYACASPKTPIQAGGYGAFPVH
The experiment is described as follows: Biochemical assay for B-Raf.1 (coupled pyruvate kinase/lactate dehydrogenase). To be noted: read-out: BRAF.1 IC50. The essentials:
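Reaction rates over the 4–5 h window of a continuous 6 h, 30 °C read were converted to percent inhibition and fitted for IC50. B-Raf (0.13 nM) phosphorylated 30.1 nM MEK with 1 mM ATP; ADP coupled via PK/LDH to NADH loss at 340 nm, 1% DMSO final.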
Take `Cc1cc(F)c(NC(=O)NCCC2(C(F)(F)F)CC2)cc1-c1cc(OCCO)nc(C2CCOCC2)c1` [Example 24]: the pIC50 was no less than 7.00.

Turning to `Cc1ccc(NC(=O)Nc2cn(C)nc2C(F)(F)F)cc1-c1cc(OCCO)nc(N2CCOCC2)c1` [Example 42], the pIC50 is less than 6.00.

With `Cc1ccc(NC(=O)Nc2cnc(C(F)(F)F)s2)cc1-c1cc(OCCO)nc(N2CCOCC2)c1` [Example 43], the pIC50 is 6.30 to 7.00.

Take `CC(=O)Nc1cc(-c2cc(-c3cc(NC(=O)N[C@H]4C[C@](C)(F)C4)ccc3C)cc(OCCO)n2)ccn1` [Example 49]: the pIC50 was no less than 7.00.

Consider `CNC(=O)c1cc(-c2cc(-c3cc(NC(=O)Nc4ccnc(C(C)(C)C#N)c4)ccc3C)ccn2)ccn1` [Example 69], for which the pIC50 is no less than 7.00.

In the case of `COC(C)(C)CCNC(=O)Nc1cc(-c2cnnc(-c3ccnc(NC(=O)C4CC4)c3)c2)c(C)cc1F` [Example 173], the pIC50 was no less than 7.00.

On to `COC(=O)Nc1cc(-c2nc(OCCO)cc(-c3cc(NC(=O)NC4CC(C)(C)C4)cnc3C)n2)ccn1` [Example 174], for which the pIC50 is 6.30 to 7.00.

Regarding `CC(=O)Nc1cc(-c2cc(-c3cc(NC(=O)NCCC4(C)CC4)c(F)cc3C)cc(NCCO)n2)ccn1` [Example 175], the pIC50 was no less than 7.00.

Turning to `COC[C@H]1CCN(C(=O)Nc2cnc(C)c(-c3ccnc(-c4ccnc(NC(=O)OC)c4)c3)c2)C1` [Example 176], the pIC50 is less than 6.00.

On to `CNC(=O)c1cc(-c2cnnc(-c3cc(NC(=O)N4CC[C@H](OC)C4)ccc3C)c2)ccn1` [Example 177], for which the pIC50 is less than 6.00.

Turning to `CNC(=O)c1cc(-c2cnnc(-c3cc(NC(=O)N4CCC5(CC5)C4)ccc3C)c2)ccn1` [Example 178], the pIC50 was less than 6.00.

`COC[C@@H]1CCN(C(=O)Nc2cnc(C)c(-c3ccnc(-c4ccnc(NC(=O)OC)c4)c3)c2)C1` [Example 179]: the pIC50 was less than 6.00.

Turning to `CNC(=O)c1cc(-c2cnnc(-c3cc(NC(=O)N4CCC(C(C)(C)C)C4)ccc3C)c2)ccn1` (stereo not drawn) [Example 180], the pIC50 is 6.00 to 6.30.

`CNC(=O)c1cc(-c2cnnc(-c3cc(NC(=O)N4CC[C@@H](OC)C4)ccc3C)c2)ccn1` [Example 181]: the pIC50 was less than 6.00.

In the case of `CNC(=O)c1cc(-c2cnnc(-c3cc(NC(=O)N4CC[C@@H](OC(F)(F)F)C4)ccc3C)c2)ccn1` [Example 182], the negative logarithm of the IC50 (pIC50) was 6.00 to 6.30.

As for `CNC(=O)c1cc(-c2cnnc(-c3cc(NC(=O)N4CCC(C(C)(C)C)C4)cnc3C)c2)ccn1` (stereo not drawn) [Example 184], the negative logarithm of the IC50 (pIC50) was less than 6.00.

`COC(=O)Nc1cc(-c2cnnc(-c3cc(NC(=O)N4CCC(C(C)(C)C)C4)ccc3C)c2)ccn1` (stereo not drawn) [Example 185]: the pIC50 was 6.30 to 7.00.

For `COC(=O)Nc1cc(-c2cc(-c3cc(NC(=O)NCCC4(C)CC4)ccc3F)cc(OCCO)n2)ccn1` [Example 187], the negative-log IC50 (pIC50) was no less than 7.00.

With `COC(=O)Nc1cc(-c2cc(-c3cc(NC(=O)NCCC4(C)CC4)c(F)cc3F)cc(OCCO)n2)ccn1` [Example 188], the pIC50 is no less than 7.00.

In a further experiment the test system is A375 cells. The experiment is described as follows: A375 cell proliferation assay (1), resazurin, 96-well. In kind it is cell-based. To be noted: Homo sapiens, A-375, inhibition of cell proliferation. In outline: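 Viability was read by resazurin fluorescence at 540 nm excitation and 600 nm emission, using a 440 μM solution added for 5–6 h at the end of culture. IC50 came from the curve fit.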
For the compound `Cc1cc(F)c(NC(=O)NCCC2(C(F)(F)F)CC2)cc1-c1cc(OCCO)nc(C2CCOCC2)c1` [Example 24], the pIC50 is 6.30 to 7.00.

Regarding `Cc1ccc(NC(=O)Nc2cn(C)nc2C(F)(F)F)cc1-c1cc(OCCO)nc(N2CCOCC2)c1` [Example 42], the pIC50 was 5.00 to 6.00.

Take `Cc1ccc(NC(=O)Nc2cnc(C(F)(F)F)s2)cc1-c1cc(OCCO)nc(N2CCOCC2)c1` [Example 43]: the pIC50 is no less than 7.00.

Consider `CC(=O)Nc1cc(-c2cc(-c3cc(NC(=O)N[C@H]4C[C@](C)(F)C4)ccc3C)cc(OCCO)n2)ccn1` [Example 49], for which the pIC50 is 5.00 to 6.00.

Turning to `CNC(=O)c1cc(-c2cc(-c3cc(NC(=O)Nc4ccnc(C(C)(C)C#N)c4)ccc3C)ccn2)ccn1` [Example 69], the pIC50 was 5.00 to 6.00.

On to `COC(C)(C)CCNC(=O)Nc1cc(-c2cnnc(-c3ccnc(NC(=O)C4CC4)c3)c2)c(C)cc1F` [Example 173], for which the pIC50 is 6.00 to 6.30.

On to `COC(=O)Nc1cc(-c2nc(OCCO)cc(-c3cc(NC(=O)NC4CC(C)(C)C4)cnc3C)n2)ccn1` [Example 174], for which the pIC50 was 5.00 to 6.00.

For `CC(=O)Nc1cc(-c2cc(-c3cc(NC(=O)NCCC4(C)CC4)c(F)cc3C)cc(NCCO)n2)ccn1` [Example 175], the pIC50 was 6.30 to 7.00.

Regarding `COC[C@H]1CCN(C(=O)Nc2cnc(C)c(-c3ccnc(-c4ccnc(NC(=O)OC)c4)c3)c2)C1` [Example 176], the negative logarithm of the IC50 (pIC50) is 5.00 to 6.00.

Turning to `CNC(=O)c1cc(-c2cnnc(-c3cc(NC(=O)N4CC[C@H](OC)C4)ccc3C)c2)ccn1` [Example 177], the pIC50 was 5.00 to 6.00.

For the compound `CNC(=O)c1cc(-c2cnnc(-c3cc(NC(=O)N4CCC5(CC5)C4)ccc3C)c2)ccn1` [Example 178], the pIC50 was 5.00 to 6.00.

Consider `COC[C@@H]1CCN(C(=O)Nc2cnc(C)c(-c3ccnc(-c4ccnc(NC(=O)OC)c4)c3)c2)C1` [Example 179], for which the pIC50 is 5.00 to 6.00.

Turning to `CNC(=O)c1cc(-c2cnnc(-c3cc(NC(=O)N4CCC(C(C)(C)C)C4)ccc3C)c2)ccn1` (stereo not drawn) [Example 180], the pIC50 is 6.30 to 7.00.

For the compound `CNC(=O)c1cc(-c2cnnc(-c3cc(NC(=O)N4CC[C@@H](OC)C4)ccc3C)c2)ccn1` [Example 181], the pIC50 was 5.00 to 6.00.

Take `CNC(=O)c1cc(-c2cnnc(-c3cc(NC(=O)N4CC[C@@H](OC(F)(F)F)C4)ccc3C)c2)ccn1` [Example 182]: the pIC50 is 5.00 to 6.00.

Consider `CNC(=O)c1cc(-c2cnnc(-c3cc(NC(=O)N4CCC(C(C)(C)C)C4)cnc3C)c2)ccn1` (stereo not drawn) [Example 184], for which the pIC50 was 5.00 to 6.00.

For the compound `COC(=O)Nc1cc(-c2cnnc(-c3cc(NC(=O)N4CCC(C(C)(C)C)C4)ccc3C)c2)ccn1` (stereo not drawn) [Example 185], the pIC50 was 6.30 to 7.00.

As for `COC(=O)Nc1cc(-c2cc(-c3cc(NC(=O)NCCC4(C)CC4)ccc3F)cc(OCCO)n2)ccn1` [Example 187], the negative-log IC50 (pIC50) is 5.00 to 6.00.

Take `COC(=O)Nc1cc(-c2cc(-c3cc(NC(=O)NCCC4(C)CC4)c(F)cc3F)cc(OCCO)n2)ccn1` [Example 188]: the negative logarithm of the IC50 (pIC50) was 6.00 to 6.30.
